Data set [1] in a line: Color change / oxidation of cannabinoid oils on exposure to air (visual). The data set is classed as physicochemical. To be noted: about 5% CBDA by weight added, homogenized under mild heat (about 70° C.).
Data set [2] can be described thus: UV-Visible spectroscopy of color purity of THC oils. The format is physicochemical. The settings on record: 5% by weight CBDA added, versus sample without CBDA; FIG. 8. As for the experimental part:
The color purities of THC oils with and without acidic cannabinoids were measured using a LabTech BlueStar A UV-Vis Spectrophotometer. The data collection range was from 250 nm to 1100 nm at a scan rate of 3 nm per second. About 1 g of sample was added to scintillation vial followed by addition of 5 mL of ethanol. The solution was agitated for 2 min in order to fully dissolve the oil and transferred to a UV-Vis quartz cuvette. An ethanol background was collected prior to running the samples to reduce solvent.

As for `CCCCCc1cc(O)c2c(c1)OC(C)(C)[C@@H]1CCC(C)=C[C@@H]21` [Sample D9-THC, Δ^9-tetrahydrocannabinol], the “color of solution after CBDA addition” value in data set [1] is on record as “yellow solution with minimal discoloration”. In the case of `CCCCCc1cc(O)c2c(c1)OC(C)(C)[C@@H]1CC=C(C)C[C@@H]21` [Sample D8-THC, Δ8-tetrahydrocannabinol], in data set [2], the “visible absorption after CBDA addition (UV-Visible spectra)” value was “less visible absorption”.

The record behind these values is patent US20230346810A1, “ENDOGENOUS STABILIZATION OF CANNABINOIDS” (Abstrax Tech Inc., priority 2022, published 2023).
